{"source": "ChEMBL document CHEMBL3526076", "about": "“Species-dependent and receptor-selective action of bilobalide on the function of constitutive androstane receptor and pregnane X receptor” (Drug Metab Dispos, 2012)", "key": {"[1]": {"target": "T1, Nuclear receptor subfamily 1 group I member 2 (Rattus norvegicus, UniProt Q9R1A7)", "T1 sequence (Q9R1A7 whole entry)": "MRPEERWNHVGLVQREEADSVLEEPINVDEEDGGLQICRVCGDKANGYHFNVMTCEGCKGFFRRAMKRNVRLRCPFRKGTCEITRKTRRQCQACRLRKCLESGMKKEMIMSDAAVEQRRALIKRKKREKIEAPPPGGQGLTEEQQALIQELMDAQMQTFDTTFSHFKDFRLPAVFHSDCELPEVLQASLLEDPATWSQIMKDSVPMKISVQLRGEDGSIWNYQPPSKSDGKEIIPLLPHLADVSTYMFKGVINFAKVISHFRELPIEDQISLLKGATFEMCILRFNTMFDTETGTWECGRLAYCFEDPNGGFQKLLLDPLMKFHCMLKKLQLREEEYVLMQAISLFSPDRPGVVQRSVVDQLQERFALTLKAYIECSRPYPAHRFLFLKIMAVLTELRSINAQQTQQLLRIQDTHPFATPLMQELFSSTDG", "experiment": "Activation of rat PXR expressed in rat hepatocytes coexpressing CYP3A4 at 100 uM after 24 hrs by dual luciferase reporter gene assay", "assay_type": "ADME, cell-based, Hepatocyte"}, "CAR mRNA [2]": {"system": "CAR mRNA", "experiment": "Effect on CAR mRNA expression in rat hepatocytes at 30 uM by RT-PCR analysis relative to control", "assay_type": "ADME, cell-based, Hepatocyte", "details": "read-out: FC; call rule not given here"}, "[3]": {"target": "T2, Nuclear receptor subfamily 1 group I member 3 (Homo sapiens, UniProt Q14994)", "T2 sequence (Q14994 whole entry)": "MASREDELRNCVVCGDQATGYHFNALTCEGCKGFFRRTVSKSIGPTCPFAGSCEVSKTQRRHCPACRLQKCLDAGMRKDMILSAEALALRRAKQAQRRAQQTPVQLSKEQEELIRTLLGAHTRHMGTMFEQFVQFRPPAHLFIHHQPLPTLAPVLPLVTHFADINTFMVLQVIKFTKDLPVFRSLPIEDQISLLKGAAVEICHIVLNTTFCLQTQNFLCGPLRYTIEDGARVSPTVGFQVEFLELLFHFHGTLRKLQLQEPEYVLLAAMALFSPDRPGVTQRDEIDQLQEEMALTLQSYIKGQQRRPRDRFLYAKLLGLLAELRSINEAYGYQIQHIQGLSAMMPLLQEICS", "experiment": "Activation of CAR in human Hu1108 hepatocytes assessed as increase in CYP2B6-mediated bupropion hydroxylation at 10 to 50 uM after 24 hrs by LC-MS analysis", "assay_type": "ADME, cell-based, Hepatocyte"}, "[4]": {"target": "T3, Nuclear receptor subfamily 1 group I member 3 (Rattus norvegicus, UniProt Q9QUS1)", "T3 sequence (Q9QUS1 whole entry)": "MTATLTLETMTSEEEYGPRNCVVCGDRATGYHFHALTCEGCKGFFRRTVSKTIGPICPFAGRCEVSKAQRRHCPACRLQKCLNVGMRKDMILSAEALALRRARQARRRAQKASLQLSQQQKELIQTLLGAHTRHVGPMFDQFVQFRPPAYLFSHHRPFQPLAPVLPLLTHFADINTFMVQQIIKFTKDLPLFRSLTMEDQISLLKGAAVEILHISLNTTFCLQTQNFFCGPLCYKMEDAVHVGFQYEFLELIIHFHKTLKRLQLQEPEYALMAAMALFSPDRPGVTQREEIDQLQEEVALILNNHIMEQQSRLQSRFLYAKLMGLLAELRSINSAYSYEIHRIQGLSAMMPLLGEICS", "experiment": "Activation of CAR in rat hepatocytes assessed as upregulation of CYP2B1 mRNA expression at 10 uM after 24 hrs by RT-PCR analysis relative to phenobarbital", "assay_type": "ADME, cell-based, Hepatocyte"}, "[5]": {"target": "T3, Nuclear receptor subfamily 1 group I member 3", "experiment": "Activation of rat CAR expressed in rat hepatocytes coexpressing CYP2B1 at 0.1 to 10 uM after 24 hrs by dual luciferase reporter gene assay", "assay_type": "ADME, cell-based, Hepatocyte"}, "[6]": {"target": "T4, Nuclear receptor subfamily 1 group I member 2 (Homo sapiens, UniProt O75469)", "T4 sequence (O75469 whole entry)": "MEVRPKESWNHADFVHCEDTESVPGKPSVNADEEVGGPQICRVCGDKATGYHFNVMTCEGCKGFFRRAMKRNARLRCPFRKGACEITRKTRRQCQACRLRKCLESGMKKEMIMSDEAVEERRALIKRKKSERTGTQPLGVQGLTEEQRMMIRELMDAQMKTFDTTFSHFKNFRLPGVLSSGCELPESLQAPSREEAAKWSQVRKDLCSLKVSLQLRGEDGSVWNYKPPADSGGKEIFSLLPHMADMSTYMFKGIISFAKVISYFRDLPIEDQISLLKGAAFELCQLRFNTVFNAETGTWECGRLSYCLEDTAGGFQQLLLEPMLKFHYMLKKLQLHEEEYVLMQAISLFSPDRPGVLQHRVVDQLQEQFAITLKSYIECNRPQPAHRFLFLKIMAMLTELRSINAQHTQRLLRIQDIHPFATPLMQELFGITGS", "experiment": "Antagonist activity at human PXR expressed in human HepG2 cells coexpressing CYP3A4 assessed as inhibition of rifampicin-induced receptor activation up to 100 uM after 24 hrs by dual luciferase reporter gene assay", "assay_type": "ADME, cell-based", "details": "hepg2, 24 h"}, "PXR mRNA": {"system": "PXR mRNA", "experiment": "Effect on PXR mRNA expression in rat hepatocytes at 1 uM by RT-PCR analysis relative to control", "assay_type": "ADME, cell-based, Hepatocyte", "details": "read-out: FC"}, "CAR mRNA [7]": {"system": "CAR mRNA", "experiment": "Effect on CAR mRNA expression in human hepatocytes at 25 uM by RT-PCR analysis relative to control", "assay_type": "ADME, cell-based, Hepatocyte", "details": "read-out: FC"}, "Hepatocyte": {"system": "Hepatocyte", "experiment": "Cytotoxicity against rat hepatocytes at 1 to 100 uM after 24 hrs by lactate dehydrogenase assay", "assay_type": "cell-based"}, "[8]": {"target": "T4, Nuclear receptor subfamily 1 group I member 2", "experiment": "Activation of human PXR expressed in rat hepatocytes coexpressing CYP3A4 at 100 uM after 24 hrs by dual luciferase reporter gene assay", "assay_type": "ADME, cell-based, Hepatocyte"}}}
{"smiles": "CC(C)(C)[C@]1(O)C[C@@H]2OC(=O)C[C@@]23C(=O)O[C@@H]2OC(=O)[C@H](O)[C@]213", "values": [{"measurement": "Activity", "setting": "[1]", "value": "Not Active"}, {"measurement": "fold induction at 30 µM", "setting": "CAR mRNA [2]", "value": 1}, {"measurement": "Activity", "setting": "[3]", "value": "Not Active"}, {"measurement": "Activity", "setting": "[4]", "value": 18, "unit": "%"}, {"measurement": "Activity", "setting": "[5]", "value": "Not Active"}, {"measurement": "inhibition (INH)", "setting": "[6]", "value": "Not Active"}, {"measurement": "fold induction at 1 µM", "setting": "PXR mRNA", "value": 1.1}, {"measurement": "fold induction at 25 µM", "setting": "CAR mRNA [7]", "value": 1.4}, {"measurement": "Activity", "setting": "Hepatocyte", "value": "Non-toxic"}, {"measurement": "Activity", "setting": "[8]", "value": "Not Active"}]}
